Assay results as given in publication PMC11969438 (Inorganic Chemistry Frontiers, 2025).

Columns and labels:
[1] = test system: IRF pathway (STING-dependent); experiment: IRF-inducible luciferase reporter in THP1-Dual reporter cell model; format: cell-based, human; details: for EC50: 24 h exposure, normalized to cell viability, oxaliplatin in combinations 5 μM
Description: (§1) The THP1-Dual™ reporter cell model for simultaneously monitoring the activity of the IRF and NF-κB pathway contains an IRF-inducible luciferase reporter under the control of an ISG54 minimal promoter in conjunction with five interferon (IFN)-stimulated response elements, and an induced SEAP driven by an IFN-β minimal promoter fused to five copies of the NF-κB consensus transcriptional response element and three copies of the c-Rel binding site. The luciferase and SEAP reporter are measurable in the cell culture supernatant using QUANTI-Luc™ 4 Lucia/Gaussia (InvivoGen) and QUANTI-Blue™ (InvivoGen) solution, respectively. Cells were seeded at 1 × 10^5 cells per well in 96-well plates in RPMI-1640 medium, supplemented with 10% FCS, L-glutamine and Pen-Strep. After 2 h of recovery, the compounds were applied at the concentrations indicated in triplicate. The cell culture supernatant (SN) was collected after 24 h of drug incubation and secreted luciferase and SEAP reporter levels were measured according to the manufacturer's recommendations. In brief, for the detection of luciferase, 20 μL of SN were transferred into 96-well white opaque plates, and 30 μL of QUANTI-Luc™ reagent were added per well using an injector module in a multimode microplate reader (Tecan Spark, Zurich, Switzerland). Luminescence was recorded at a reading time of 0.1 second. For the detection of SEAP, 10 μL of SN were transferred to 96-well plates and 90 μL of QUANTI-Blue™ were added per well. Absorbance was measured at 620 nm. Half-maximal effective concentrations (EC50 values) were derived via interpolation from dose–response curves, modeled with the four-parameter logistic (4PL) nonlinear regression model in GraphPad Prism. For comparison, the maximal response rate of the prodrug was depicted in the percent of the maximal response rate achieved by SR-717 or MSA-2 (%EMAX) at the respective concentrations tested. Activatability, tested in co-incubation experiments with AA (50 μM), was expressed as the area under the curve (AUC) ratio of +AA vs. −AA-treated cells. The STING-dependency of the reporter induction was tested by co-administration of the STING inhibitor H-151 (10 μM), added to the cell culture medium 2 h before applying the investigated compounds. In addition to monitoring secreted reporter levels, the cell viability of the reporter cells was determined after 24 h of drug treatment by an MTT-based cell viability assay.

[2] = test system: NF-κB pathway (STING-dependent); experiment: NF-κB-inducible SEAP reporter in THP1-Dual reporter cell model; format: cell-based, human; details: for EC50: 24 h exposure, normalized to cell viability, oxaliplatin in combinations 5 μM
Description: as §1

[3] = test system: THP1-Dual, HCT116, HCT116/OxR and CT-26 cells; experiment: MTT-based cell viability assay, 72 h, statements over all investigated cell lines; set-up: species or system human and murine; details: none of the investigated cell lines vulnerable, read-out: IC50 of free single agent
Experimental: Cell models were seeded (2–2.5 × 10^3 cells per well) in 96-well plates. After 24 h of recovery, the compounds were applied at the concentrations indicated in triplicate. Cell viability was determined after 72 h of continuous drug incubation using an MTT-based cell viability assay (EZ4U, Biomedica, Vienna, Austria) according to the manufacturer's recommendations. Absorbance was measured at 450 nm (vs. 620 nm as reference) using a multimode microplate reader (Tecan Spark, Zurich, Switzerland). Half-maximal inhibitory concentrations (IC50 values) were derived via interpolation from dose–response curves, modeled with the four-parameter logistic (4PL) nonlinear regression model in GraphPad Prism (La Jolla, CA, USA) from at least three independent experiments.

THP1-Dual cells [4] = experiment: Western blot analysis of STING downstream pathway, DNA damage and cell death markers; format: cell-based, human; details: 24 h
Experimental: The THP1-Dual cell model was seeded at 1 × 10^6 cells per well in six-well plates. After 24 h of recovery, the compounds were applied at the concentrations indicated. After 24 h of drug exposure, whole-cell protein isolation was performed as described previously.[14] Sodium dodecyl sulfate polyacrylamide gel electrophoresis was performed. Proteins were transferred onto polyvinylidene difluoride membranes (Thermo Scientific, Waltham, MA, USA). Antibodies targeting STING (##13 647; 1 : 1000), phospho-STING (#19 781; 1 : 500), TBK1 (#3504; 1 : 500), IRF-3 (#4302; 1 : 500), phospho-p65 (#3033; 1 : 500), ISG15 (#2743; 1 : 1000), caspase-3 (#9665; 1 : 1000), cleaved caspase-3 (#9661; 1 : 1000), PARP (#9532; 1 : 1000), and cleaved PARP (#9541; 1 : 1000) were purchased from Cell Signaling Technology (Danvers, MA, USA). The p65 antibody (#sc-372; 1 : 1000) was purchased from Santa Cruz and the phospho-H2A.X antibody (#05-636-I; 1 : 500) was obtained from Merck (Darmstadt, Germany). The anti-β-actin (#5441; 1 : 2000) antibody was obtained from Sigma-Aldrich. The anti-mouse IgG (#A0168; 1 : 10 000) horseradish peroxidase (HRP)-coupled secondary antibody was purchased from Sigma-Aldrich, and the anti-rabbit IgG (#7074; 1 : 5000) HRP-linked secondary antibody was obtained from Cell Signaling Technology.

THP1-Dual cells [5] = experiment: Quantitative RT-PCR of target genes downstream of STING; format: cell-based, human; details: 24 h, prodrugs 100 μM, MSA-2 25 μM
Experimental: The THP1-Dual cell model was seeded at 1 × 10^6 cells per well in six-well plates. After 24 h of recovery, the compounds were applied at the concentrations indicated. After 24 h of drug exposure, total RNA was isolated using TRIzol reagent (Thermo Fisher Scientific, MA, USA), as described previously.[12] RNA was reverse transcribed into cDNA using RevertAid Reverse Transcriptase (Thermo Fisher Scientific). Real-time PCR was performed using the GoTaq® RT-qPCR system (Promega) with a CFX96 Touch Real-Time PCR Detection System (Bio-Rad Laboratories). Relative mRNA levels were quantified using the 2^−ddCT method.[54] RPL41 was used as a housekeeping gene. Human-specific primers were purchased from Eurofins Genomics (Ebersberg, Germany) with the following sequences: RPL41: fwd (5′-[…]-3′), rev (5′-[…]-3′); IFNB1: fwd (5′-CTTGGATTCCTACAAAGAAGCAGC-3′), rev (5′-[…]-3′); ISG15: fwd (5′-[…]-3′), rev (5′-[…]-3′); IFIT1: fwd (5′-[…]-3′), rev (5′-[…]-3′); CXCL10: fwd (5′-[…]-3′), rev (5′-[…]-3′); and CCL5: fwd (5′-[…]-3′), rev (5′-[…]-3′).

THP1-Dual cells [6] = experiment: Cytokine and chemokine secretion in cell culture supernatant, Luminex; format: cell-based, human; details: 24 h, prodrug 100 μM, MSA-2 25 μM
Experimental: Quantification of secreted protein targets in either cell culture SN or in plasma of treated animals was performed using a ProcartaPlex (96-well) multiplex assay panel (Thermo Fisher Scientific) in the xMAP detection platform (Luminex). For the in vitro detection of secreted proteins, THP1-Dual cells were seeded at 1 × 10^5 cells per well in 96-well plates in RPMI-1640 medium, supplemented with 10% FCS, L-glutamine and Pen-Strep. After 24 h of recovery, the compounds were applied at the concentrations indicated in triplicate.
After 24 h of drug incubation, the cell culture SN of technical triplicate was collected, pooled, centrifuged (400g, 10 min, 4 °C), transferred into a fresh tube, and stored at −20 °C.
Next, the ProcartaPlex (96-well) multiplex assay panel was performed according to the manufacturer's recommendations. In brief, the capture bead mix was incubated with test samples (undiluted SN or mouse plasma) or standard mix overnight. The SN of three independent experiments or the plasma of four animals per treatment group was loaded onto the multiplex assay plate. Next, biotinylated detection antibody mix and Streptavidin-PE were added to the plate. Following the recommended washing steps, the samples were incubated in a reading buffer and were measured using a Luminex xMAP platform (Bio-Plex MAGPIX Multiplex Reader; Bio-Rad Laboratories) and analyzed using xPONENT software.

CT-26 tumors = experiment: Anticancer efficacy in vivo, syngeneic colorectal carcinoma; set-up: species or system BALB/c mice; details: i.v. twice a week for two weeks, equimolar to 9 mg kg^−1 oxaliplatin
Experimental: Tumor size was determined daily via manual caliper measurement. […] Animals were euthanized via cervical dislocation.

[7] = Reduction kinetics with 10 eq. L-ascorbic acid in phosphate buffer, UHPLC; format: physicochemical; details: 10 eq. AA, PB pH 7.4, 20 °C; for original compound left in presence of AA: after 5 h
Experimental: (§2) PB (150 mM, pH 7.4) containing 1 mM platinum compound was incubated at 20 °C, with and without the addition of 10 eq. of AA. The reaction was monitored using a Thermo Scientific Dionex UltiMate 3000 UHPLC system with a Waters Acquity UPLC BEH C18 1.7 μm 3.0 × 50 mm column. Milli-Q water containing 0.1% formic acid and acetonitrile containing 0.1% formic acid were used as eluents. A gradient of 5–95% over 5 min was used with a flow of 0.6 mL min^−1. To evaluate the current state of the reaction, the peak area of the parental complex was used.

[8] = Hydrolytic stability in phosphate buffer, UHPLC; format: physicochemical; details: 1 mM, 150 mM PB pH 7.4, 20 °C, over 5 h
Experimental: as §2

THP1-Dual cells [9] = experiment: Intracellular platinum accumulation in vitro by ICP-MS; format: cell-based, human; details: 3 h exposure, compared to oxaliplatin
Experimental: The THP1-Dual cell model was seeded at 1 × 10^6 cells per well in six-well plates. After 24 h of recovery, the compounds were applied at the concentrations indicated in triplicate. After 3 h of drug exposure, the cells were prepared as published previously.[13] […] The lysate was filled up to 8 mL with water. The platinum concentration was determined by ICP-MS analysis. Platinum and rhenium standards were derived from CPI International (Amsterdam, the Netherlands). The total platinum content was determined with an Agilent 7800 quadrupole-based ICP-MS instrument (Agilent Technologies, Tokyo, Japan) equipped with an Agilent SPS 4 autosampler (Agilent Technologies, Tokyo, Japan) and a MicroMist nebulizer at a sample uptake rate of approximately 0.2 mL min^−1. […] Argon was used as a plasma gas (15 L min^−1) and as a carrier gas (∼1.1 L min^−1). The dwell time was set to 0.1 s and the measurements were performed in 12 replicates with 100 sweeps. Rhenium served as an internal standard for platinum.

[10] = H-151 10 μM added 2 h before the compounds
[11] = 24 h, maximal response relative to SR-717

## CCc1ccc(NC(=O)Nc2c[nH]c3ccccc23)cc1 [H-151]
[1]; [10]
  effect on agonist- and prodrug-induced IRF reporter signal: completely abolished
[2]; [10]
  effect on agonist- and prodrug-induced NF-κB reporter signal: completely abolished

## COc1cc2cc(C(=O)CCC(=O)O)sc2cc1OC [MSA-2]
[3]
  IC50: > 75 µM
[1]; 24 h
  IRF EC50 ratio fold MSA-2: 1.0 fold
  activation of IRF signaling pathway: robustly activated
  fold lower IRF-inducing activity compared to SR-717: ~3.1 fold
[1]; 24 h, maximal response relative to MSA-2, highest tested dose 100 μM
  IRF %EMAX of MSA-2: 100%
[1]
  EC50: 9.1 µM
[1]; AA 50 μM
  impact of reducing conditions on IRF-induced reporter signal (AUC ratio +AA/−AA): no notable modulation
[2]; 24 h
  NF-κB EC50 ratio fold MSA-2: 1.0 fold
  activation of NF-κB signaling pathway: robustly activated
[2]; 24 h, maximal response relative to MSA-2
  NF-κB %EMAX of MSA-2: 100%
[2]
  EC50: 17.7 µM
THP1-Dual cells [4]
  DNA damage (p-H2A.X upregulation, cleavage of caspase-3 and PARP): induced DNA damage
  induction of ISG15: triggered
  phosphorylation of NF-κB (p65): only detected in cells treated with MSA-2
THP1-Dual cells [5]
  mRNA induction of immune response genes (IFN-β, ISG15, IFIT1, CXCL10, CCL5): distinctly induced
THP1-Dual cells [6]
  secretion of cytokines and chemokines: induced distinct secretion of cytokines and chemokines
CT-26 tumors
  tumor growth: significantly inhibited malignant growth

## CC(=O)[O][Pt-2]12([O]C(=O)c3cc(F)c(F)cc3N)([NH2+][C@@H]3CCCC[C@H]3[NH2+]1)[O]C(=O)C(=O)[O]2 [Ox-Bz-F2-NH2]
[7]
  original compound left in presence of AA: approximately 80%

## CC(=O)Nc1cc(F)c(F)cc1C(=O)[O][Pt-2]12([O]C(C)=O)([NH2+][C@@H]3CCCC[C@H]3[NH2+]1)[O]C(=O)C(=O)[O]2 [Ox-Bz-F2-NHAc]
[7]
  original compound left in presence of AA: 40%

## CC(=O)[O][Pt-2]12([O]C(=O)c3ccc(F)c(F)c3)([NH2+][C@@H]3CCCC[C@H]3[NH2+]1)[O]C(=O)C(=O)[O]2 [Ox-Bz-F2]
[7]
  original compound left in presence of AA: approximately 95%

## CC(=O)[O][Pt-2]12([O]C(=O)c3ccccc3)([NH2+][C@@H]3CCCC[C@H]3[NH2+]1)[O]C(=O)C(=O)[O]2 [Ox-Bz]
[7]
  original compound left in presence of AA: approximately 95%

## COCCOCCOCCOCCC(=O)[O][Pt-2]12([O]C(=O)c3cc(F)c(F)cc3NC(=O)c3ccc(-n4ccnc4)nn3)([NH2+][C@@H]3CCCC[C@H]3[NH2+]1)[O]C(=O)C(=O)[O]2 [Ox-SR-PEG-Es]
[8]
  hydrolytic stability: No significant hydrolysis
[7]; after ∼3 h
  original prodrug remaining in presence of AA: only traces
THP1-Dual cells [9]
  cellular platinum accumulation: significantly higher platinum levels compared to oxaliplatin
[1]; [11]
  IRF %EMAX of SR-717: 66%
[1]
  EC50: 12.4 µM
[2]; [11]
  NF-κB %EMAX of SR-717: 52%
[2]
  EC50: 35.1 µM
